Bridge positions count the residues as written; N and C are the ends. Peptide text beside a SMILES is read from it.
Experiments:
Experiment in all cases: cell-based
[1] = biological target: human Kv1.3 channel (Homo sapiens, UniProt P22001); format: cell-based
[2] = biological target: human Kv1.1 (Homo sapiens, UniProt Q09470); set-up: expressed in transfected cells; host or cells: HEK293; conditions: Kv1.1 (IC50, pM)
[3] = biological target: T1, human Kv1.1 (HEK293) (Homo sapiens, UniProt Q09470)
T1 construct: expressed in transfected cells; host or cells: HEK293

[4] = biological target: T2, human Kv1.3 (CHO) (Homo sapiens, UniProt P22001)
T2 construct: expressed in transfected cells; host or cells: CHO
T2 sequence (P22001 whole entry): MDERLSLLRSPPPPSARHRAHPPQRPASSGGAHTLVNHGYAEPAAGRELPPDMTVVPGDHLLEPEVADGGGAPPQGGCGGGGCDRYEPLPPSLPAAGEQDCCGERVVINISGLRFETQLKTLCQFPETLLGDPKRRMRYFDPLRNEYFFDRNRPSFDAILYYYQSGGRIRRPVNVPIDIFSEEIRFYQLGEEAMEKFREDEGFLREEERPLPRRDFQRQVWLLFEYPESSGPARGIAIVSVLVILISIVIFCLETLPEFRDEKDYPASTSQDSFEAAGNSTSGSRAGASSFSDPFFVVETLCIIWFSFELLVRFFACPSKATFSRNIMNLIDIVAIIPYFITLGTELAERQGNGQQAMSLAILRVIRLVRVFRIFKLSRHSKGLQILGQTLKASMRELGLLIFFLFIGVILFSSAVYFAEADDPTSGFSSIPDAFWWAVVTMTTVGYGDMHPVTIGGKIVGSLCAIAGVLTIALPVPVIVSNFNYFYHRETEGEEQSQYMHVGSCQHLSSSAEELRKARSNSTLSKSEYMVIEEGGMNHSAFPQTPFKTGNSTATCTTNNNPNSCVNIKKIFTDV

T1 sequence (Q09470 whole entry): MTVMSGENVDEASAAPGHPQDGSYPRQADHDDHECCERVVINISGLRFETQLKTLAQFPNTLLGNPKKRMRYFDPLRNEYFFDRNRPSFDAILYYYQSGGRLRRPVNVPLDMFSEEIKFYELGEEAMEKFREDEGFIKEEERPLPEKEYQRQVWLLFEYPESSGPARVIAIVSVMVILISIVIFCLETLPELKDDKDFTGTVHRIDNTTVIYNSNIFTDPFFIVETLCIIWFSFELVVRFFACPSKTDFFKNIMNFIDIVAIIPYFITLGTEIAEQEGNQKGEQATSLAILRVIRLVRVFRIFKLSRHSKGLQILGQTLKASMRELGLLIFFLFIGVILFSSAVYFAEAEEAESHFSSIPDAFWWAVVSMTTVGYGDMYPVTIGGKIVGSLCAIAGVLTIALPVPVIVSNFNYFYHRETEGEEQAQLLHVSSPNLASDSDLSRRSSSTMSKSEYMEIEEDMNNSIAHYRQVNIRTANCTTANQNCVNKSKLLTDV
Chain of human Kv1.1 (Q09470 whole entry): as above
Chain of human Kv1.3 channel (P22001 whole entry): as the sequence (P22001 whole entry) above

CC[C@H](C)[C@@H]1NC(=O)[C@H](CCCCN)NC(=O)[C@@H](NC(=O)[C@H](CCCCN)NC(=O)[C@@H](NC(=O)[C@H](CC(N)=O)NC(=O)[C@@H](NC(=O)[C@@H](NC(=O)[C@@H](NC(=O)CN)C(C)C)[C@@H](C)CC)[C@@H](C)CC)C(C)C)CSSC[C@@H]2NC(=O)[C@H](CCCCN)NC(=O)CNC(=O)[C@H](Cc3ccccc3)NC(=O)[C@H](CCCNC(=N)N)NC(=O)[C@H](CCSC)NC(=O)CNC(=O)[C@H](C)NC(=O)[C@H](CCCCN)NC(=O)[C@H](CCCCN)NC(=O)[C@@H]3CSSC[C@@H](C(=O)N[C@H](C(=O)N4CCC[C@H]4C(=O)N[C@@H](CCCCN)C(=O)O)[C@@H](C)O)NC(=O)[C@H](C)NC(=O)[C@H](CSSC[C@H](NC(=O)[C@H](CCC(N)=O)NC(=O)[C@H](CCCNC(=N)N)NC(=O)[C@H](CO)NC1=O)C(=O)N[C@@H](CC(C)C)C(=O)N[C@@H](CCC(=O)O)C(=O)N1CCC[C@H]1C(=O)N3)NC(=O)[C@H](CCCCN)NC(=O)CNC(=O)[C@H](CC(N)=O)NC(=O)[C@H](CCSC)NC2=O [H34A] (H-GVIINVKCKISRQCLEPCKKAGMRFGKCMNGKCACTPK-OH; disulfide 8-28, 14-33, 18-35)
IC50 [1]: 16 pM | IC50 [2]: 12800 pM | IC50 [3]: 368 pM | IC50 [4]: 19.4 pM

CC[C@H](C)[C@@H]1NC(=O)[C@H](CCCCN)NC(=O)[C@@H](NC(=O)[C@H](CCCCN)NC(=O)[C@@H](NC(=O)[C@H](CC(N)=O)NC(=O)[C@@H](NC(=O)[C@@H](NC(=O)[C@@H](NC(=O)CN)C(C)C)[C@@H](C)CC)[C@@H](C)CC)C(C)C)CSSC[C@@H]2NC(=O)[C@H](CCCCN)NC(=O)CNC(=O)[C@H](Cc3ccccc3)NC(=O)[C@H](CCCNC(=N)N)NC(=O)[C@H](CCSC)NC(=O)CNC(=O)[C@H](C)NC(=O)[C@H](CCCCN)NC(=O)[C@H](CCCCN)NC(=O)[C@@H]3CSSC[C@@H](C(=O)N[C@H](C(=O)N4CCC[C@H]4C(=O)N[C@@H](CCCCN)C(=O)O)[C@@H](C)O)NC(=O)[C@H](CCC(=O)O)NC(=O)[C@H](CSSC[C@H](NC(=O)[C@H](CCC(N)=O)NC(=O)[C@H](CCCNC(=N)N)NC(=O)[C@H](CO)NC1=O)C(=O)N[C@@H](CC(C)C)C(=O)N[C@@H](CCC(=O)O)C(=O)N1CCC[C@H]1C(=O)N3)NC(=O)[C@H](CCCCN)NC(=O)CNC(=O)[C@H](CC(N)=O)NC(=O)[C@H](CCSC)NC2=O [H34E] (H-GVIINVKCKISRQCLEPCKKAGMRFGKCMNGKCECTPK-OH; disulfide 8-28, 14-33, 18-35)
IC50 [1]: 1320 pM | IC50 [2]: 39400 pM | IC50 [3]: 1690 pM | IC50 [4]: 330 pM

CC[C@H](C)[C@@H]1NC(=O)[C@H](CCCCN)NC(=O)[C@@H](NC(=O)[C@H](CCCCN)NC(=O)[C@@H](NC(=O)[C@H](CC(N)=O)NC(=O)[C@@H](NC(=O)[C@@H](NC(=O)[C@@H](NC(=O)CN)C(C)C)[C@@H](C)CC)[C@@H](C)CC)C(C)C)CSSC[C@@H]2NC(=O)[C@H](CCCCN)NC(=O)CNC(=O)[C@H](Cc3ccccc3)NC(=O)[C@H](CCCNC(=N)N)NC(=O)[C@H](CCSC)NC(=O)CNC(=O)[C@H](C)NC(=O)[C@H](CCCCN)NC(=O)[C@H](CCCCN)NC(=O)[C@@H]3CSSC[C@@H](C(=O)N[C@H](C(=O)N4CCC[C@H]4C(=O)N[C@@H](CCCCN)C(=O)O)[C@@H](C)O)NC(=O)[C@H](Cc4c[nH]cn4)NC(=O)[C@H](CSSC[C@H](NC(=O)[C@H](CCC(N)=O)NC(=O)[C@H](CCCNC(=N)N)NC(=O)[C@H](CO)NC1=O)C(=O)N[C@@H](CCC(=O)O)C(=O)N[C@@H](CCC(=O)O)C(=O)N1CCC[C@H]1C(=O)N3)NC(=O)[C@H](CCCCN)NC(=O)CNC(=O)[C@H](CC(N)=O)NC(=O)[C@H](CCSC)NC2=O [L15E] (H-GVIINVKCKISRQCEEPCKKAGMRFGKCMNGKCHCTPK-OH; disulfide 8-28, 14-33, 18-35)
IC50 [1]: 190 pM | IC50 [2]: 65000 pM | IC50 [3]: 436 pM | IC50 [4]: 47.5 pM

CC[C@H](C)[C@@H]1NC(=O)[C@H](CCCCN)NC(=O)[C@@H](NC(=O)[C@H](CCCCN)NC(=O)[C@@H](NC(=O)[C@H](CC(N)=O)NC(=O)[C@@H](NC(=O)[C@@H](NC(=O)[C@@H](NC(=O)CN)C(C)C)[C@@H](C)CC)[C@@H](C)CC)C(C)C)CSSC[C@@H]2NC(=O)[C@H](CCCCN)NC(=O)CNC(=O)[C@H](Cc3ccccc3)NC(=O)[C@H](CCCNC(=N)N)NC(=O)[C@H](CCSC)NC(=O)CNC(=O)[C@H](C)NC(=O)[C@H](CCCCN)NC(=O)[C@H](CCCCN)NC(=O)[C@@H]3CSSC[C@@H](C(=O)N[C@H](C(=O)N4CCC[C@H]4C(=O)N[C@@H](CCCCN)C(=O)O)[C@@H](C)O)NC(=O)[C@H](Cc4c[nH]cn4)NC(=O)[C@H](CSSC[C@H](NC(=O)[C@H](CCC(N)=O)NC(=O)[C@H](CCCNC(=N)N)NC(=O)[C@H](CO)NC1=O)C(=O)N[C@@H](CC(C)C)C(=O)N[C@@H](CCC(=O)O)C(=O)N1CCC[C@H]1C(=O)N3)NC(=O)[C@H](CCCCN)NC(=O)CNC(=O)[C@H](CC(N)=O)NC(=O)[C@H](C)NC2=O [M29A] (H-GVIINVKCKISRQCLEPCKKAGMRFGKCANGKCHCTPK-OH; disulfide 8-28, 14-33, 18-35)
IC50 [2]: 3470 pM | IC50 [3]: > 3330 pM | IC50 [4]: 59.5 pM

CC[C@H](C)[C@@H]1NC(=O)[C@H](CCCCN)NC(=O)[C@@H](NC(=O)[C@H](CCCCN)NC(=O)[C@@H](NC(=O)[C@H](CC(N)=O)NC(=O)[C@@H](NC(=O)[C@@H](NC(=O)[C@@H](NC(=O)CN)C(C)C)[C@@H](C)CC)[C@@H](C)CC)C(C)C)CSSC[C@@H]2NC(=O)[C@H](CCCCN)NC(=O)CNC(=O)[C@H](Cc3ccccc3)NC(=O)[C@H](CCCNC(=N)N)NC(=O)[C@H](CCSC)NC(=O)CNC(=O)[C@H](C)NC(=O)[C@H](CCCCN)NC(=O)[C@H](CCCCN)NC(=O)[C@@H]3CSSC[C@@H](C(=O)N[C@H](C(=O)N4CCC[C@H]4C(=O)N[C@@H](CCCCN)C(=O)O)[C@@H](C)O)NC(=O)[C@H](Cc4c[nH]cn4)NC(=O)[C@H](CSSC[C@H](NC(=O)[C@H](CCC(N)=O)NC(=O)[C@H](CCCNC(=N)N)NC(=O)[C@H](CO)NC1=O)C(=O)N[C@@H](CC(C)C)C(=O)N[C@@H](CCC(=O)O)C(=O)N1CCC[C@H]1C(=O)N3)NC(=O)[C@H](CCCCN)NC(=O)CNC(=O)[C@H](CC(N)=O)NC(=O)[C@H](CCCNC(=N)N)NC2=O [M29R] (H-GVIINVKCKISRQCLEPCKKAGMRFGKCRNGKCHCTPK-OH; disulfide 8-28, 14-33, 18-35)
IC50 [1]: 760 pM | IC50 [2]: 23000 pM | IC50 [3]: 1870 pM | IC50 [4]: 200 pM

CC[C@H](C)[C@@H]1NC(=O)[C@H](CCCCN)NC(=O)[C@@H](NC(=O)[C@H](CCCCN)NC(=O)[C@@H](NC(=O)[C@H](CC(N)=O)NC(=O)[C@@H](NC(=O)[C@@H](NC(=O)[C@H](CCCNC(=N)N)NC(=O)CN)[C@@H](C)CC)[C@@H](C)CC)C(C)C)CSSC[C@@H]2NC(=O)[C@H](CCCCN)NC(=O)CNC(=O)[C@H](Cc3ccccc3)NC(=O)[C@H](CCCNC(=N)N)NC(=O)[C@H](CCSC)NC(=O)CNC(=O)[C@H](C)NC(=O)[C@H](CCCCN)NC(=O)[C@H](CCCCN)NC(=O)[C@@H]3CSSC[C@@H](C(=O)N[C@H](C(=O)N4CCC[C@H]4C(=O)N[C@@H](CCCCN)C(=O)O)[C@@H](C)O)NC(=O)[C@H](Cc4c[nH]cn4)NC(=O)[C@H](CSSC[C@H](NC(=O)[C@H](CCC(N)=O)NC(=O)[C@H](CCCNC(=N)N)NC(=O)[C@H](CO)NC1=O)C(=O)N[C@@H](CC(C)C)C(=O)N[C@@H](CCC(=O)O)C(=O)N1CCC[C@H]1C(=O)N3)NC(=O)[C@H](CCCCN)NC(=O)CNC(=O)[C@H](CC(N)=O)NC(=O)[C@H](CCSC)NC2=O [V2R] (H-GRIINVKCKISRQCLEPCKKAGMRFGKCMNGKCHCTPK-OH; disulfide 8-28, 14-33, 18-35)
IC50 [3]: 25.8 pM | IC50 [4]: 133 pM

CC[C@H](C)[C@@H]1NC(=O)[C@H](CCCCN)NC(=O)[C@@H](NC(=O)[C@H](CCCCN)NC(=O)[C@H](C)NC(=O)[C@H](CC(N)=O)NC(=O)[C@@H](NC(=O)[C@@H](NC(=O)[C@@H](NC(=O)CN)C(C)C)[C@@H](C)CC)[C@@H](C)CC)CSSC[C@@H]2NC(=O)[C@H](CCCCN)NC(=O)CNC(=O)[C@H](Cc3ccccc3)NC(=O)[C@H](CCCNC(=N)N)NC(=O)[C@H](CCSC)NC(=O)CNC(=O)[C@H](C)NC(=O)[C@H](CCCCN)NC(=O)[C@H](CCCCN)NC(=O)[C@@H]3CSSC[C@@H](C(=O)N[C@H](C(=O)N4CCC[C@H]4C(=O)N[C@@H](CCCCN)C(=O)O)[C@@H](C)O)NC(=O)[C@H](Cc4c[nH]cn4)NC(=O)[C@H](CSSC[C@H](NC(=O)[C@H](CCC(N)=O)NC(=O)[C@H](CCCNC(=N)N)NC(=O)[C@H](CO)NC1=O)C(=O)N[C@@H](CC(C)C)C(=O)N[C@@H](CCC(=O)O)C(=O)N1CCC[C@H]1C(=O)N3)NC(=O)[C@H](CCCCN)NC(=O)CNC(=O)[C@H](CC(N)=O)NC(=O)[C@H](CCSC)NC2=O [V6A] (H-GVIINAKCKISRQCLEPCKKAGMRFGKCMNGKCHCTPK-OH; disulfide 8-28, 14-33, 18-35)
IC50 [3]: 12.8 pM | IC50 [4]: 174 pM

CC[C@H](C)[C@@H]1NC(=O)[C@H](CCCCN)NC(=O)[C@@H](NC(=O)[C@H](CCCCN)NC(=O)[C@H](CCC(=O)O)NC(=O)[C@H](CC(N)=O)NC(=O)[C@@H](NC(=O)[C@@H](NC(=O)[C@@H](NC(=O)CN)C(C)C)[C@@H](C)CC)[C@@H](C)CC)CSSC[C@@H]2NC(=O)[C@H](CCCCN)NC(=O)CNC(=O)[C@H](Cc3ccccc3)NC(=O)[C@H](CCCNC(=N)N)NC(=O)[C@H](CCSC)NC(=O)CNC(=O)[C@H](C)NC(=O)[C@H](CCCCN)NC(=O)[C@H](CCCCN)NC(=O)[C@@H]3CSSC[C@@H](C(=O)N[C@H](C(=O)N4CCC[C@H]4C(=O)N[C@@H](CCCCN)C(=O)O)[C@@H](C)O)NC(=O)[C@H](Cc4c[nH]cn4)NC(=O)[C@H](CSSC[C@H](NC(=O)[C@H](CCC(N)=O)NC(=O)[C@H](CCCNC(=N)N)NC(=O)[C@H](CO)NC1=O)C(=O)N[C@@H](CC(C)C)C(=O)N[C@@H](CCC(=O)O)C(=O)N1CCC[C@H]1C(=O)N3)NC(=O)[C@H](CCCCN)NC(=O)CNC(=O)[C@H](CC(N)=O)NC(=O)[C@H](CCSC)NC2=O [V6E] (H-GVIINEKCKISRQCLEPCKKAGMRFGKCMNGKCHCTPK-OH; disulfide 8-28, 14-33, 18-35)
IC50 [3]: 2.43 pM | IC50 [4]: 17.7 pM

Fc-L10-OSK1[K7S]: OSK1-peptibody with lysine to serine substitution at position 7
fold difference in Kv1.3 potency compared to Fc-L10-OSK1 [1]: 2 fold

— patent US20090299044A1 (priority 2006, published 2009)
